{"source": "paper PMC8184532", "about": "(European Journal of Clinical Pharmacology, 2021)", "origin": "cited, not measured here", "key": {"[1]": {"conditions": "coadministered with ritonavir; Stader et al."}}, "note": "Read-outs that look alike come from different tables or passages of the source."}
{"smiles": "CCOC(=O)C1=C(COCCN)NC(C)=C(C(=O)OC)C1c1ccccc1Cl", "note": "(stereo not shown) [amlodipine]", "values": [{"measurement": "increase in amlodipine exposure", "setting": "coadministered with antiviral agents for chronic hepatitis C or ritonavir-boosted indinavir, non-compartmental analyses", "value": 2, "unit": "fold"}, {"measurement": "increase in amlodipine exposure", "setting": "coadministered with ritonavir-boosted indinavir, healthy volunteers", "value": 90, "unit": "%"}, {"measurement": "increase in amlodipine exposure", "setting": "in the presence of diltiazem, a CYP3A4 inhibitor, summary of product characteristics", "value": 60, "unit": "%"}, {"measurement": "increase in amlodipine exposure", "setting": "[1]", "value": 90, "unit": "%"}]}
